This is an account of results in patent publication US7407772B2, “Screening and selection methods for statin drug combinations” (Merck & Co., Inc., priority 2001, dated 2008).

Each structure is given as a SMILES string. Entries after “also recorded” stand apart in the source; their conditions may differ. Read-outs that look alike come from different tables or passages of the source. A value given as a limit tells only on which side of the number the result lay.

What is called Cmax is the highest concentration seen after dosing. As usually defined, the IC50 is the concentration at which inhibition is half-maximal. In general, AUC(0-t) refers to the area under the concentration-time curve up to a stated or last time point. Usually inhibition stands for the drop in the measured response relative to a control, in per cent.

The nature of series [1]: Glucuronidation assay: statin glucuronidation in human liver microsomes. The settings on record: human, pH 7, read-out: intrinsic clearance of glucuronidation. Format: in vitro ADME. A general note: Liver microsomes are a subcellular fraction often used to study metabolism.
Method: (§5) The term “glucuronidation assay” as used herein refers to the following assay when performed with human liver microsomes. […] Unless otherwise specified, the reaction was started by the addition of statins following a 3-min pre-incubation at 37° C., and the reaction was incubated for 45-60 min. Control experiments included incubation mixtures with either microsomes or UDPGA missing. The reaction was terminated, at appropriate time intervals, by the addition of 0.8 ml acetonitrile (ACN). […] The ability of statins to undergo glucuronidation was measured by formation of statin glucuronide and statin lactones, and expressed in term of intrinsic clearance (Clint). The CLint was estimated by dividing Vmax by apparent Km. The Km and Vmax values were estimated using a nonlinear regression program, based on a Michealis-Menten equation as follow: V=Vmax×C/(Km+C); V=formation rate of statin glucuronide+lactone, and C=substrate concentration. Incubations were performed in triplicate for human liver microsomes (pooled from n=10) or UGTs at 250-μM substrate concentration. Values are mean±SD (n=3 to 5).
Series [2] relates to human liver microsomes. The description is as above. In kind it is in vitro ADME. To be noted: preliminary data.
Method: as §5
Series [3] has as its system CYP3A (SVA, AVA); CYP3A and CYP2C8 (CVA). Nature of the series: in vitro. To be noted: human, human liver microsomes, pH 7.4.
Method: For oxidative metabolism studies, a typical incubation mixture, in a final volume of 0.5 mL, contained 0.1-0.25 mg liver microsomal protein, 0.1M sodium phosphate buffer (pH 7.4), 10 mM MgCl2, and 1 mM NADPH. […] Incubations were conducted at 37° C. and were terminated after 10-20 min (with NADPH) by the addition of ACN (acetonitrile). The ACN extracts were evaporated to dryness and reconstituted for analysis by HPLC with UV detection.
In brief, samples, held in an autosampler set at 5° C., were chromatographed on either a Betasil C18 (250×4.6 mm, 5 μm) or a Zorbax C18 (Waters, 150×4.6 mm, 5 μm) column, preceded by a C18 guard column, with a linear gradient of acetonitrile in 10 or 25 mM ammonium acetate, pH 4.5. […] Due to unavailability of authentic standards for oxidative metabolites of statins, quantitation of these metabolites in the in vitro incubation mixtures was accomplished using standard curves for their respective statins, assuming identical extraction recoveries and extinction coefficients between the parent drug and its corresponding metabolites.
In series [4] the test system is human recombinant UGT isoforms. Nature of the series: UGT-specific glucuronidation assay, identification of responsible isoforms. In kind it is in vitro ADME. The method, then:
To examine UGT isoforms responsible for the glucuronidation of statins, incubations with various human recombinant UGT isoforms were performed using the same conditions as described herein for human liver microsomes in Example 1, except that the mixture contained 0.3 mg UGTs and was incubated for up to 60 min.

The conditions of series [5]: cited from earlier work; for Cmax: reported values following 600 mg bid gemfibrozil or 200 mg qd fenofibrate in humans; for increase of plasma AUC by gemfibrozil: humans, multiple oral doses of gemfibrozil, single oral dose of simvastatin or lovastatin.
In series [6] the test system is glucuronidation of simvastatin acid (UDPGA-dependent). Nature of the series: Inhibition of simvastatin acid glucuronidation in dog liver microsomes. In kind it is in vitro ADME. The settings on record: pH 7, probe simvastatin acid (10-20 μM).
Method: A typical incubation mixture, in a final volume of 0.3 ml, contained 0.45 mg human or animal liver microsomes, preincubated with 0.045 mg Brij 58 (or 0.0225 mg alamethicin) for 15 min, 20 mM MgCl2, 5 mM UDPGA, and 0.05 M Tris buffer, pH 7.0.
Series [7] in a line: Pharmacokinetics after oral simvastatin in dogs pretreated with vehicle, gemfibrozil or fenofibrate. To be noted: dog, in vivo.
In series [8] the test system is glucuronidation of AVA (UDPGA-dependent). Nature of the series: in vitro. To be noted: human, liver microsomes, pH 7, probe AVA (10-20 μM), IC50, AVA Glucuronidation, statin 10-20 μM, UDPGA. The procedure: (§1) The term “glucuronidation inhibition assay” as used herein refers to the following assay when performed with human liver microsomes.
(§2) The effects of inhibitors on metabolism of the statins were expressed as percentages of metabolites (statin glucuronides and lactones) formed in the presence of inhibitors relative to the corresponding values obtained in the absence of inhibitors (control) on the same day.
(§3) Incubations were performed in triplicate for each concentration of inhibitors, and involved co-incubation of GFZ or ketoconazole (1 μM) with statins (10-20 μM) in the presence of NADPH (oxidation) or UDPGA (glucuronidation).

The test system of series [9] is glucuronidation of CVA (UDPGA-dependent). Nature of the series: in vitro. To be noted: human, liver microsomes, pH 7, probe CVA (10-20 μM), IC50, CVA Glucuronidation, statin 10-20 μM, UDPGA. The procedure: as §1, §2, §3
Series [10] has as its system glucuronidation of RVA (UDPGA-dependent). Nature of the series: in vitro. To be noted: human, liver microsomes, pH 7, probe RVA (10-20 μM), IC50, RVA Glucuronidation, statin 10-20 μM, UDPGA. The procedure:
as §1, §2, §3

The subject of series [11] is glucuronidation of SVA (UDPGA-dependent). Nature of the series: in vitro. The settings on record: human, liver microsomes, pH 7, probe SVA (10-20 μM), IC50, SVA Glucuronidation, statin 10-20 μM, UDPGA. The method, then: as §1, §2, §3
For series [12], the system named is human liver microsomes. Nature of the series: in vitro. The method, then:
as §1, §2, §3

Series [13] concerns CYP3A-mediated oxidation of SVA. Nature of the series: in vitro. To be noted: human, pH 7.4. The procedure: (§4) The term “oxidation inhibition assay” as used herein refers to the following assay when performed with human liver microsomal protein.
as §3

For series [14], the system named is oxidation of CVA to O-demethylated metabolite M2. Nature of the series: in vitro. The settings on record: human, pH 7.4. The procedure: as §4, §3
For series [15], the system named is oxidation of CVA to hydroxylated metabolite M1. Nature of the series: in vitro. To be noted: human, pH 7.4. The method, then: as §4, §3
The test system of series [16] is oxidative metabolism of AVA (NADPH-dependent). Nature of the series: in vitro. The settings on record: human, pH 7.4. The procedure:
as §4, §3

Series [17] has as its system oxidative metabolism of simvastatin acid (NADPH-dependent). Nature of the series: Inhibition of simvastatin acid oxidation in dog liver microsomes. In kind it is in vitro ADME. To be noted: pH 7.4, probe simvastatin acid (10-20 μM).
The nature of series [18]: Ex vivo simvastatin hydrolysis in dog plasma. In kind it is in vitro ADME.
Series [19] in a line: Clinical pharmacokinetics in humans (literature). Format: in vivo. The settings on record: at their respective therapeutic doses.
For series [20] the following is noted: dog, in vivo, po.
For series [21] the following is noted: dog, in vivo.
The next series has as its target T1, CYP3A4 (Homo sapiens, UniProt P08684).
T1 construct: in human liver microsomes, an in vitro assay for determining hepatic CYP3A4 activity; host or cells: human liver microsomes
The settings on record: human liver microsomes; cited from earlier work.

The test system of series [22] is oxidation of CVA (both oxidative metabolites). Nature of the series: in vitro. The settings on record: human, pH 7.4. The method, then: as §4, §3
In series [23] the test system is oxidation of CVA to metabolite M1. Nature of the series: in vitro. The settings on record: human, pH 7.4. The method, then: as §4, §3
Series [24] relates to oxidation of CVA to metabolite M2. Nature of the series: in vitro. The settings on record: human, pH 7.4. The method, then:
as §4, §3

The subject of series [25] is oxidative metabolism of SVA (NADPH-dependent). Nature of the series: in vitro. To be noted: human, pH 7.4. The method, then: as §4, §3

T1 sequence (P08684 whole entry): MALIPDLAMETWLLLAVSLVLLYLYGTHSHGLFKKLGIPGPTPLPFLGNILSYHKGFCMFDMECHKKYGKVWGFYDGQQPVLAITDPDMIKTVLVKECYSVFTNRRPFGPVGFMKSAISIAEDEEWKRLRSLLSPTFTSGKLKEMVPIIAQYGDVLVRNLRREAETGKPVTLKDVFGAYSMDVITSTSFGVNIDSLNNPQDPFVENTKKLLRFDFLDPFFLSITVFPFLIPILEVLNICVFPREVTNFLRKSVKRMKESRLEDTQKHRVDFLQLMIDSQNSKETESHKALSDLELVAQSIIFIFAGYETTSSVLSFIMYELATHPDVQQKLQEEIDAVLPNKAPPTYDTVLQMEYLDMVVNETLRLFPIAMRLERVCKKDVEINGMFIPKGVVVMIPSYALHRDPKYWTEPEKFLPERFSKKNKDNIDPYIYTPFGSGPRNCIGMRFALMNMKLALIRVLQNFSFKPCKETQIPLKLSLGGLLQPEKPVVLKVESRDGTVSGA

With `COCc1c(C(C)C)nc(C(C)C)c(/C=C/[C@@H](O)C[C@@H](O)CC(=O)O)c1-c1ccc(F)cc1` [CVA, cerivastatin], the microsomal CLint in [1] amounted to 2.9 µL/min/mg. Also, in the series with human liver microsomes [2], the “CLint, Glucuronidation” value is 2.9 ul/min/mg protein and the “Relative Contribution of glucuronidation to overall metabolism” value turned out to be 22. For the same compound, in [3], the microsomal CLint was found to be 10 µL/min/mg.

`CC(C)OC(=O)C(C)(C)Oc1ccc(C(=O)c2ccc(Cl)cc2)cc1` [Fenofibrate, fenofibrate]: the “UGT isozymes catalyzing glucuronidation of the substance” value (shortened to “UGT isozymes catalyzing glucuronidation”) in series [4] was “UGT1A9 and isoforms of the UGT2B subfamily”. The Cmax in series [5] was 15 to 55 µM.

For `CC(C)(Oc1ccc(C(=O)c2ccc(Cl)cc2)cc1)C(=O)O` [Fenofibric acid, fenofibric acid], the IC50 in series [6] is 283 µM. Besides, the highest concentration (Cmax) in [7] (Cmax of fenofibric acid, fenofibrate treated) came out at 77 ± 9.7 µM.

As to `Cc1ccc(C)c(OCCCC(C)(C)C(=O)O)c1` [Gemfibrozil, gemfibrozil], the “UGT isozymes catalyzing glucuronidation” value in series [4] was “UGT1A1 and 1A3”. Moreover, the IC50 was 314 µM in series [8]; 82 µM in [9]; around 400 µM in series [10]; 354 µM in series [11]; 316 µM in the series on human liver microsomes [12] (read-out: IC50, AVA Glucuronidation, statin 10-20 μM, UDPGA); 195 µM in [6]. Besides, the IC50 was above 800 µM in [13]; 220 µM in series [14]; 87 µM in series [15]; above 750 µM in series [16]; around 1000 µM in [17]. Also, in the series with human liver microsomes [12], the “mode of inhibition of simvastatin acid glucuronidation” value was “competitive inhibition”. The “effect on ex vivo simvastatin hydrolysis” value in series [18] is “Minimal effect”; in series [18] (listed as gemfibrozil), “did not affect”. Also, the “exposure in humans relative to fenofibrate/fenofibric acid” value in [19] is given as above 2 fold. The “SVA/SV AUC ratio, Gem/vehicle” value in [20] was 5.4 ± 2.1. In addition, in [21], the “decrease in the biliary excretion of simvastatin-glucuronide” value was around 2 fold. Besides, the Cmax in [5] was 100 to 300 µM; in series [7] (po, 75 mg/kg, Cmax of gemfibrozil, gemfibrozil treated (75 mg/kg bid for 5 days)), 446 ± 66 µM. For the same compound, the “effect on CYP3A4 mediated 1'-hydroxylation of midazolam” value at CYP3A4 was “no appreciable inhibitory effect”. In [7] (po, 75 mg/kg, AUC 12 hr of gemfibrozil, gemfibrozil 75 mg/kg bid for 5 days), the AUC(0-t) was 1440 ± 176 µM·h.

With `CC(=O)N1CCN(c2ccc(OCC3COC(Cn4ccnc4)(c4ccc(Cl)cc4Cl)O3)cc2)CC1` (stereo not drawn) [Ketoconazole, ketoconazole], the inhibition at 1 µM in series [22] is at most 50%; in series [23] it was 68%; in series [24], around 50%; in series [16], above 90%; in series [25] it was above 85%.

Regarding `CCC(C)(C)C(=O)O[C@H]1C[C@@H](C)C=C2C=C[C@H](C)[C@H](CC[C@@H](O)C[C@@H](O)CC(=O)O)[C@H]21` [Simvastatin acid, simvastatin acid], in [4] (listed as SVA), the “UGT isozymes catalyzing glucuronidation” value was “UGT1A1 and 1A3; also recorded: UGT1A10”. Also, in series [5], the “increase of plasma AUC by gemfibrozil” value is given as 185%.

`CC[C@H](C)C(=O)O[C@H]1C[C@@H](C)C=C2C=C[C@H](C)[C@H](CC[C@@H](O)C[C@@H](O)CC(=O)O)[C@H]21` [lovastatin acid]: in series [5], the “increase of plasma AUC by gemfibrozil” value is listed as 280%.

As to `CC[C@H](C)C(=O)O[C@H]1C[C@@H](C)C=C2C=C[C@H](C)[C@H](CC[C@@H]3C[C@@H](O)CC(=O)O3)[C@H]21` [lovastatin lactone, lovastatin], in series [5], the “increase of plasma AUC by gemfibrozil” value is listed as “no significant effect”.
